Laboratory results: publication PMC4204849, “Lifespan Based Pharmacokinetic-Pharmacodynamic Model of Tumor Growth Inhibition by Anticancer Therapeutics” (PLoS ONE, 2014)
Values after ≈ are worked out from the molar mass of the structure shown. Marks after values point to notes of the source that are not given here.

Columns and labels:
[1] = set-up: method as in PMID 14871843; settings: two-compartment model, parameter fixed, cited from earlier work
[2] = mouse, in vivo, iv, 30 mg/kg
From the text: (§1) Data used in Case Study 1 was obtained from mouse xenograft study reported by Simeoni and colleague. […] Data from the study was digitized using Graph Digitizer 2.0 (Nick's Production).

[3] = system: tumors derived from the HCT116 human colon carcinoma cell line; experiment: Tumor growth inhibition by paclitaxel in xenograft mice, lifespan TGI model with cycle-specific drug effect; format: in vivo; settings: for TA (duration of apoptosis): 30 mg/kg i.v. every 4 days from day 8, grid search, then fixed, data digitized from ref 11; for Emax (maximum effect): fixed to 1 due to lack of escalating doses
From the text: as §1

[4] = Pharmacokinetic study of AZD1208, single oral administration, one-compartment model; format: in vivo, mice; settings: single oral 3, 10, 30 mg/kg
Protocol: For pharmacokinetic study of AZ968, CD1 mice were given single i.p. injection of AZ968 at 10, 20 or 30 mg/kg with 3 mice per dose group. Blood samples were collected via cardiac puncture. Total plasma concentrations of AZ968 were determined by LC/MS/MS method. Same procedure was used for the pharmacokinetic study of AZD1208, except AZD1208 was administered orally (p.o.) at 3, 10 or 30 mg/kg doses as outlined in the original study.
(§2) Data for this case study was provided by AstraZeneca. For the purpose of this case study we will set time according to when the first dose of AZD1208 was administered, which we count as day 1. We began with a compartmental PK analysis after a single oral administration of AZD1208 at 3, 10 and 30 mg/kg and found it well described using a one-compartment PK model with first order absorption as shown in Figure 9A.

MOLM-16 tumor cell = experiment: Tumor growth inhibition by AZD1208 in xenograft, lifespan TGI model (non-cycle-specific, Emax); format: in vivo, mice
Protocol: as §2
After establishing the PK model, we fit the TGI data using the lifespan TGI model. Since AZD1208 is a pan-Pim kinase inhibitor that promotes apoptosis at any stages of cell cycle, the data were analyzed using the non-cycle-specific model. […] In order to adapt the lifespan TGI model to account for only exponential growth we simply set the tumor threshold, wth, to a very large value well beyond the observed values of tumor size. Another unique feature of this dataset is the inclusion of saturating doses. To accommodate the dose ranges we replaced the drug potency constant, k2, in eq. 18 with the Emax model. The process of fitting was the same as for the previous studies, however, in this study the control data were very sparse and the doubling time, T, could not be estimated. In order to proceed with the analysis we set T = 3 days based on the doubling time reported by the commercial vendor of the MOLM-16 tumor cell used in the study, which was similar to the doubling reported the original study when the cells were initially collected. […] The remaining parameters were estimated with high precision and are well within biologically feasible ranges (see Table 6).

peak plasma concentration [2] [ng/mL] | V/F [4] [L/kg] | elimination rate constant, kel [4] | ka [4] [day⁻¹] | EC50 (MOLM-16 tumor cell; plasma concentration, Emax model, non-cycle-specific model) [µg/mL] | Compound | V ([1]; i.v. paclitaxel) [L/kg] | k12 [1] [h⁻¹] | k21 [1] [h⁻¹] | kel [1] [h⁻¹] | TA (duration of apoptosis) [3] [days] | TA (duration of apoptosis) ([3]; listed as Paclitaxel) | Emax (maximum effect) [3] | Emax (maximum effect) ([3]; listed as Paclitaxel) | TA (duration of apoptosis) (MOLM-16 tumor cell; 0.3, 1, 3, 10, 30 mg/kg orally, parameter was fixed) | Emax (MOLM-16 tumor cell; Emax model replacing k2 in non-cycle-specific model)
37040 |  |  |  |  | CC(=O)O[C@H]1C(=O)[C@@]2(C)[C@H]([C@H](OC(=O)c3ccccc3)[C@]3(O)C[C@H](OC(=O)[C@H](O)[C@@H](NC(=O)c4ccccc4)c4ccccc4)C(C)=C1C3(C)C)[C@]1(OC(C)=O)CO[C@@H]1C[C@@H]2O [paclitaxel] | 0.81 | 0.006 | 0.0838 | 0.868 | 0.536 | 0.536 ^a days | 1 | 1 ^a |  | 
 | 4.86 | same value as ka | 5.52 | 0.182 (≈ 0.48 µM) | N[C@@H]1CCCN(c2c(/C=C3\SC(=O)NC3=O)cccc2-c2ccccc2)C1 [AZD1208] |  |  |  |  |  |  |  |  | 1.92 ^a days | 0.159
